Test results as given in patent US20040033210A1, “Enhancement of antibody-cytokine fusion protein mediated immune responses by co-administration with prostaglandin inhibitor” (EMD Lexigen Research Center Corp., priority 1998, published 2004).

Tested on: LLC-EpCAM subcutaneous tumors
Assay: Combination therapy of LLC-Ep subcutaneous tumors in C57BL/6 mice with indomethacin (Example 5), tumor volume
Type: in vivo
Conditions: after treatment for 22 days; fusion protein 25 μg/mouse i.v., 5 daily injections; indomethacin 20 μg/mL in drinking water throughout
Protocol: FIG. 5 is a line graph depicting the effect on subcutaneous tumors of an antibody-cytokine fusion protein administered either alone or in combination with indomethacin. The size of LLC-EpCAM subcutaneous tumors were monitored in mice treated with phosphate buffered saline (closed diamonds), a huKS-huγ1-huIL2 fusion protein (closed squares), indomethocin (closed triangles), and a combination of the huKS-huγ1-huIL2 fusion protein and indomethocin (crosses).
Female C57lB6 mice were injected subcutaneously in the mid-back with LLC-Ep cells (5×10^5 per mouse) grown in cell culture. After about two weeks, animals with palpable tumors in the range of 150-400 mm^3 were divided into four groups, with an equal distribution of tumor sizes between the groups. […] Tumor growth was monitored by volumetric measurements until animals in the control group became moribund and were euthanized. Tumor volumes were measured with calipers and calculated as V=4 π/3 (0.5L×0.5W×0.5H), where L is the length, W is the width, and H is the height of the tumor. […]
When the tumors reached 100-200 mm^3 in size (about 7 to 14 days), the mice were randomized into four groups, 5 mice per group. […] Tumor volumes were measured as described in Example 3. […]

SMILES: COc1ccc2c(c1)c(CC(=O)O)c(C)n2C(=O)c1ccc(Cl)cc1 [indomethacin]
- T/C ratio: 0.60
